Laboratory results published in patent publication US7767822B2, “Water-soluble tetrazolium salts” (Bayer Healthcare LLC, priority 2005, dated 2010).
Read-outs that look alike come from different tables or passages of the source.

Assays:
[1] = Absorption spectra of formazans formed from the tetrazolium salts; format: physicochemical; details: 100 μM tetrazolium salt in 100 mM potassium phosphate buffer, 5-fold excess ascorbate; compared with HTC-045
Experimental: The compounds prepared and tested for their solubility had somewhat different spectral properties. The absorption spectra of each formazan formed from the tetrazolium salt and tested for solubility in Table 1 was measured with a Hewlett Packard Model 8453 diode-array UV-visible spectrophotometer. Solutions of 100 μM of a tetrazolium salt were prepared in 100 mM potassium phosphate buffer. The formazan spectra were measured after the addition of 5-fold excess ascorbate acid salt to convert the tet salts to their formazans.

[2] = Solubility of tetrazolium salts in 0.2M phosphate buffer; format: physicochemical
[3] = 0.2M phosphate buffer, pH ~7.5, room temperature

Row | Compound | shape of formazan absorbance versus wavelength curve [1] | Solubilility [2] [mM] | Solubilility [2, 3] [mM]
1 | 5-Benzo[1,3 dioxol-5-yl]-3-[2-(3-trimethylammonium) propoxy-phenyl]-2(benzothiazol-2-yl)-2 H-tetrazolium bromo nitrite salt [Example 4] | relatively flat |  | 
2 | 5-Benzo[1,3 dioxol-5-yl]-3-[2-(3-trimethylammonium) propoxy-phenyl]-2-(5-chloro-4-difluoromethyl-thiazol-2-yl)-2 H-tetrazolium bromo tetrafluoroborate salt [Example 2] | relatively flat | 5 | 
3 | 5-Benzo[1,3 dioxol-5-yl]-3-[2-(3-trimethylammonium) propoxy-phenyl]-2-(5-chloro-4-difluoromethyl-thiazol-2-yl)-2H-tetrazolium bromo nitrite salt [Example 1] | relatively flat |  | 
4 | 5-Benzo[1,3 dioxol-5-yl]-3-[2-(3-trimethylammonium) propoxy-phenyl]-2-(6-methoxynapthylthiazol-2-yl)-2 H-tetrazolium bromo nitrite salt [Example 5] | rising absorbance verses wavelength curve |  | 
5 | 5-[4-(3-trimethylammonium) propoxy-3-methoxy-phenyl]-3-[2-(3-trimethylammonium) propoxy-phenyl]-2-(6-ethoxy-benzothiazol-2-yl)-2H-tetrazolium tribromide salt [Example 9] |  |  | 260
6 | 5-[4-(3-trimethylammonium)propoxy-3-methoxy-phenyl]-3-[2-(3-trimethylammonium) propoxy-phenyl]-2-(6-bromo-benzothiazol-2-yl)-2H-tetrazolium dibromo nitrite salt [Example 8] | relatively flat |  | 
7 | Br.CN(C)CCCOc1ccccc1-[n+]1nc(-c2ccc3c(c2)OCO3)nn1-c1nc(C(F)F)c(Cl)s1.O=N[O-] [Example 3, 5-Benzo[1,3 dioxol-5-yl]-3-[2-(3-dimethylhydrogenammoniun)propoxy-phenyl]-2-(5-chloro-4-difluoromethyl-thiazol-2-yl)-2 H-tetrazolium bromo nitrite salt] | relatively flat | 9 | 
8 | COc1cc(-c2nn(-c3nc(C(F)F)c(Cl)s3)[n+](-c3ccccc3OCCC[N+](C)(C)C)n2)ccc1OCCC[N+](C)(C)C.O=N[O-].[Br-].[Br-] [Example 6, 5-[4-(3-trimethylammonium)propoxy-3-methoxy-phenyl]-3-[2-(3-trimethylammonium)propoxy-phenyl]-2-(5-chloro-4-difluoromethyl-thiazol-2-yl)-2H-tetrazolium dibromo nitrite salt] | relatively flat |  | 181
9 | CCOc1ccc2nc(-n3nc(-c4ccc(OCCC[N+](C)(C)C)c(OC)c4)n[n+]3-c3ccccc3OCCC[N+](C)(C)C)sc2c1.O=N[O-].[Br-].[Br-] [Example 7] | relatively flat | 169 | 
